Test results from patent US10933141B2, “Formulations with reduced degradation of polysorbate” (Genentech, Inc., priority 2015, dated 2021).
Entries after “also recorded” stand apart in the source; their conditions may differ.

Legend:
[1] = molecular target: T1, porcine pancreatic lipase (PPL) (Sus scrofa, UniProt P00591); assay: Subvisible particle formation after PPL digestion of PS20 (HIAC); type: physicochemical; settings: 0.02% PS20; 15 μg/mL PPL 4.5 hours, then 5° C. overnight; excipient 15% w/v (methionine 10 mg/mL)
T1 construct: purchased Sigma Aldrich Inc. (St. Louis, Mo.)
T1 sequence (P00591 1-450): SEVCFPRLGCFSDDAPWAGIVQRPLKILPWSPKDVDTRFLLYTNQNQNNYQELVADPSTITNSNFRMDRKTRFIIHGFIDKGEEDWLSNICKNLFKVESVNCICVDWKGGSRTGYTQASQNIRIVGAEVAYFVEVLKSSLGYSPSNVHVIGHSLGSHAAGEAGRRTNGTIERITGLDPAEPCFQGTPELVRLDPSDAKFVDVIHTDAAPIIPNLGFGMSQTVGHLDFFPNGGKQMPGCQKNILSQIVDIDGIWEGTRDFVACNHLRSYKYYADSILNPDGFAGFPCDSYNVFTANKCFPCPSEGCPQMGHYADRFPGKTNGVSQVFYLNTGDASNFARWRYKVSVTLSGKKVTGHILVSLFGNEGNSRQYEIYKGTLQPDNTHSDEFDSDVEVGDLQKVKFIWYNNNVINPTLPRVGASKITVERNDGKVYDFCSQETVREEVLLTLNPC
Description: Subvisible particles were measured using a HIAC 9703 particle counter equipped with an HRDL-150 detector and a 1 mL syringe. Performance of the instrument was verified with NIST-traceable 2 μm Polystyrene bead standards at 3000 counts/mL before each measurement session. The HIAC instrument was configured to a 10 mL/min flow rate, 0.1 mL tare volume, and 0.4 mL sample volume. The samples were analyzed using 4 runs of 0.4 mL sips, with the first run of each sample was discarded to prevent measurement error due to sample carryover. Results were reported as the average values for 1.4, 2, 5, 10, 15, and 25, 50 μm analysis filter sizes.
(§1) Several excipients were tested for their ability to protect PS20 against enzymatic hydrolysis including HP-α-CD, HP-β-CD, HP-γ-CD, SBE-β-CD, PVP, PEG 1500, sucrose, and methionine. Solutions of each excipient in pH 5.5 buffer were prepared containing a final concentration of 0.02% PS20 after enzyme addition. The concentration of HP-α-CD, HP-β-CD, HP-γ-CD, and SBE-β-CD in the excipient solutions was 106 mM. […] The remaining excipients (PVP, PEG 1500, sucrose) were added to 15% w/v to match the % w/v of HP-β-CD. Samples were digested with 15 μg/mL PPL enzyme for 4.5 hours at room temperature, followed by 30 minutes of heat inactivation at 85° C. Each sample was analyzed for PS20 concentration using high performance liquid chromatography with an inline evaporative light scattering detector. Samples were then placed at 5° C. overnight to allow for the formation of particles and were analyzed for visible and subvisible particles as described previously.
(§2) The effect of the HP-β-CD concentration at different PS20 concentrations on the enzymatic degradation of PS20 was assessed to identify optimal concentrations for inhibition of enzymatic PS20 degradation. To evaluate the dependence of PS20 degradation on HP-β-CD concentration, the PS20 content was determined using RP-ELSD for triplicate samples containing different HP-β-CD concentrations at various PS20 concentrations. Samples containing 0.005% (FIG. 14A), 0.02% (FIG. 14B), 0.1% (FIG. 14C), and 0.4% PS20 (FIG. 14D) were digested using 15 μg/mL of PPL enzyme for 4.5 hours at room temperature in protein-free samples containing no excipient (control), 0, 0.5, 5, and 15% (w/v) HP-β-CD. PPL was added to each of the treatment solutions at a ratio of 75 […], with an equivalent volume of buffer added to the control solutions to determine the effect of HP-β-CD to polysorbate ratio on enzymatic degradation. Digestion was stopped by heat inactivation in an 85° C. water bath for 30 minutes. Each sample was analyzed for PS20 concentration using high performance liquid chromatography with an inline evaporative light scattering detector as described above. Samples were then placed at 5° C. overnight to allow for the formation of particles and placed on ice during analysis for visible and subvisible particles as described above.

[2] = molecular target: T1, porcine pancreatic lipase (PPL); assay: Enzymatic degradation of PS20 by PPL, 4.5 hour digestion, PS20 by RP-ELSD; type: biochemical; settings: 0.02% PS20; 15 μg/mL PPL 4.5 hours; excipient 15% w/v (methionine 10 mg/mL)
Description: Polysorbate concentration was determined using reverse phase ultra-performance liquid chromatography using evaporative light scattering detection (RP-ELSD). Samples were analyzed using an Agilent 1100 series high performance liquid chromatography system (HPLC) fitted with a Waters Oasis MAX cartridge column (20×2.1 mm, 30 μm particle size). The HPLC system was set up with a switching valve directing column flow-through to either waste or a Varian 380-LC evaporative light scattering detector set to 100° C. The mobile phases consisted of 2% formic acid in water (Pump A) and 2% formic acid in isopropanol (Pump B). The pump gradient was isocratic at 10% pump B during equilibration, linear to 20% pump B for 1 minute, isocratic at 20% pump B for 2.4 minutes, linear to 100% pump B for 0.1 minutes, isocratic at 100% pump B for 1.1 minutes, linear to 10% pump B for 0.1 minutes, and finally isocratic at 10% pump B for 1.9 minutes. The switching valve directed column flow-through to waste at the beginning of every injection, and then directed flow to the detector after 2.4 minutes until the end of the gradient. In order to quantitate the PS20 concentration, a standard curve was generated by injecting 20 μL of solutions containing between 0% w/v and 0.4% w/v PS20.
as §1, §2

| effect on SVP formation (in words) [1] | Compound | inhibitory effect on enzymatic PS20 degradation (in words) [2] |
| --- | --- | --- |
| did not have an inhibitory effect | CSCC[C@H](N)C(=O)O [methionine, reference compound] | did not have an inhibitory effect |
| significant inhibitory effects | sulfobutyl ether β-cyclodextrin [SBE-β-CD] | significant inhibitory effects; also recorded: able to prevent enzymatic degradation of PS20 |
